In patent US20230167073A1 (Teijin Pharma Limited, priority 2020, published 2023):

Target: T1, Human TRPC6 (Homo sapiens, UniProt Q9Y210)
T1 construct: expressed in transfected cells
T1 sequence (Q9Y210 1-931): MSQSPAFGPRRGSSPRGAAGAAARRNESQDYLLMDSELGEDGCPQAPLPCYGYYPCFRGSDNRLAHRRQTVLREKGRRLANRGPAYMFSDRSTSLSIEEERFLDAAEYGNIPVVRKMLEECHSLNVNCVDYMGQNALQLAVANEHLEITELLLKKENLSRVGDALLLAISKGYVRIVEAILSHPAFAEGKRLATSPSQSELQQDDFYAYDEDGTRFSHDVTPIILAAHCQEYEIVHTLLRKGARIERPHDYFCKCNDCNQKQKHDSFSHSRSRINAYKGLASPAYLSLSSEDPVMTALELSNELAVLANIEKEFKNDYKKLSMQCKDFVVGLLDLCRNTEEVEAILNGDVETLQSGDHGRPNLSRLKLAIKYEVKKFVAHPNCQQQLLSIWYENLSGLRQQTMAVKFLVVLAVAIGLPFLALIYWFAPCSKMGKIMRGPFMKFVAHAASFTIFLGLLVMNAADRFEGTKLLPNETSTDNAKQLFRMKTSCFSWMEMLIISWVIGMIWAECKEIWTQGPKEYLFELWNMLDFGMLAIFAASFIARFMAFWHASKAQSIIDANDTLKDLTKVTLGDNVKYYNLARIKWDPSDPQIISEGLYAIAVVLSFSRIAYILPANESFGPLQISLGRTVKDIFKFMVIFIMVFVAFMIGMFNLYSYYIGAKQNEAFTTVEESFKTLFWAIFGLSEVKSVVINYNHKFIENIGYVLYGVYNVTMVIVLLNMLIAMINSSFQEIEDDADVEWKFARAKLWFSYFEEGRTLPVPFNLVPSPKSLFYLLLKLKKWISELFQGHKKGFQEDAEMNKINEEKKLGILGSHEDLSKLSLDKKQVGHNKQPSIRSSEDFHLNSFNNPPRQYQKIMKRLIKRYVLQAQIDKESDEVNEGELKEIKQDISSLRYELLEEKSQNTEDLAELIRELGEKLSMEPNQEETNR
Experiment: Evaluation of TRPC6 channel inhibitory activity (1), FLIPR Calcium 5 Assay Kit, OAG stimulation (Compound Nos. 1-1293)
Format: cell-based
Conditions: Human TRPC6 stably-expressing cells, OAG 30 μM, FLIPR Calcium 5 Assay Kit; read-out: Inhibitory activity (pIC50 class) (converted)
How it was run: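 Calcium influx read by FLIPR fluorescence in cells stably expressing human TRPC6, dye-loaded 30 min. Compounds preincubated 20 min, then OAG stimulation at 30 μM final. Inhibition fitted by four-parameter logistic regression to give pIC50, reported as +/++/+++ categories.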

| IC50 | Compound |
| --- | --- |
| < 10 nM | Cn1nc(-c2ccccn2)cc1Oc1cc(C#N)ccc1-c1ccc(CN)cn1 [compound 609, 4-[5-(aminomethyl)pyridin-2-yl]-3-(2-methyl-5-pyridin-2-ylpyrazol-3-yl)oxybenzonitrile] |
| 10 to 1000 nM | Cc1nc(Oc2cc(C#N)ccc2-c2ccc(CC3(N)COC3)cn2)cc(N2CCCC2)n1 [compound 616, 4-[5-[(3-aminooxetan-3-yl)methyl]pyridin-2-yl]-3-(2-methyl-6-pyrrolidin-1-ylpyrimidin-4-yl)oxybenzonitrile] |
| < 10 nM | N#Cc1ccc(-c2ncc(CCN)cn2)c(Oc2cnnc(N3CCCCC3)c2)c1 [compound 619, 4-[5-(2-aminoethyl)pyrimidin-2-yl]-3-(6-piperidin-1-ylpyridazin-4-yl)oxybenzonitrile] |
| 10 to 1000 nM | N#Cc1ccc(-c2ncc(CCN)cn2)c(Oc2cnnc(N3CCOCC3)c2)c1 [compound 620, 4-[5-(2-aminoethyl)pyrimidin-2-yl]-3-(6-morpholin-4-ylpyridazin-4-yl)oxybenzonitrile] |
| < 10 nM | Cn1nc(N2CCCCC2)cc1Oc1cc(C#N)ccc1-c1ccc(CN)cn1 [compound 621, 4-[5-(aminomethyl)pyridin-2-yl]-3-(2-methyl-5-piperidin-1-ylpyrazol-3-yl)oxybenzonitrile] |
| < 10 nM | Cn1nc(N2CCCC2)cc1Oc1cc(C#N)ccc1-c1ccc(CN)cn1 [compound 622, 4-[5-(aminomethyl)pyridin-2-yl]-3-(2-methyl-5-pyrrolidin-1-ylpyrazol-3-yl)oxybenzonitrile] |
| < 10 nM | CN(C)c1cc(Oc2cc(C#N)ccc2-c2ccc(CN)cn2)n(C)n1 [compound 623, 4-[5-(aminomethyl)pyridin-2-yl]-3-[5-(dimethylamino)-2-methylpyrazol-3-yl]oxybenzonitrile] |
| < 10 nM | Cn1nc(N2CCCCC2)cc1Oc1cc(C#N)ccc1-c1ncc(CN)cn1 [compound 624, 4-[5-(aminomethyl)pyrimidin-2-yl]-3-(2-methyl-5-piperidin-1-ylpyrazol-3-yl)oxybenzonitrile] |
| < 10 nM | Cn1nc(N2CCCC2)cc1Oc1cc(C#N)ccc1-c1ncc(CN)cn1 [compound 625, 4-[5-(aminomethyl)pyrimidin-2-yl]-3-(2-methyl-5-pyrrolidin-1-ylpyrazol-3-yl)oxybenzonitrile] |
| < 10 nM | CN(C)c1cc(Oc2cc(C#N)ccc2-c2ncc(CN)cn2)n(C)n1 [compound 626, 4-[5-(aminomethyl)pyrimidin-2-yl]-3-[5-(dimethylamino)-2-methylpyrazol-3-yl]oxybenzonitrile] |
| < 10 nM | Cn1nc(N2CCCCC2)cc1Oc1cc(C#N)ccc1-c1ncc(CCN)cn1 [compound 627, 4-[5-(2-aminoethyl)pyrimidin-2-yl]-3-(2-methyl-5-piperidin-1-ylpyrazol-3-yl)oxybenzonitrile] |
| < 10 nM | Cn1nc(N2CCCC2)cc1Oc1cc(C#N)ccc1-c1ncc(CCN)cn1 [compound 628, 4-[5-(2-aminoethyl)pyrimidin-2-yl]-3-(2-methyl-5-pyrrolidin-1-ylpyrazol-3-yl)oxybenzonitrile] |
| < 10 nM | CN(C)c1cc(Oc2cc(C#N)ccc2-c2ncc(CCN)cn2)n(C)n1 [compound 629, 4-[5-(2-aminoethyl)pyrimidin-2-yl]-3-[5-(dimethylamino)-2-methylpyrazol-3-yl]oxybenzonitrile] |
| 10 to 1000 nM | Cc1nc(NC(C)C)cc(Oc2cc(C#N)ccc2-c2ncc(CN)cn2)n1 [compound 630, 4-[5-(aminomethyl)pyrimidin-2-yl]-3-[2-methyl-6-(propan-2-ylamino)pyrimidin-4 yl]oxybenzonitrile] |
| 10 to 1000 nM | CCNc1cc(Oc2cc(C#N)ccc2-c2ncc(CN)cn2)nc(C)n1 [compound 631, 4-[5-(aminomethyl)pyrimidin-2-yl]-3-[6-(ethylamino)-2-methylpyrimidin-4-yl]oxybenzonitrile] |
| 10 to 1000 nM | CCCNc1cc(Oc2cc(C#N)ccc2-c2ncc(CN)cn2)nc(C)n1 [compound 632, 4-[5-(aminomethyl)pyrimidin-2-yl]-3-[2-methyl-6-(propylamino)pyrimidin-4-yl]oxybenzonitrile] |
| 10 to 1000 nM | Cc1nc(NC2CC2)cc(Oc2cc(C#N)ccc2-c2ncc(CN)cn2)n1 [compound 633, 4-[5-(aminomethyl)pyrimidin-2-yl]-3-[6-(cyclopropylamino)-2-methylpyrimidin-4-yl]oxybenzonitrile] |

Continued, molecule first:

| Compound | IC50 |
| --- | --- |
| Cc1nc(Oc2cc(C#N)ccc2-c2ncc(CCN)cn2)cc(-c2ncc(C)s2)n1 [compound 602, 4-[5-(2-aminoethyl)pyrimidin-2-yl]-3-[2-methyl-6-(5-methyl-1,3-thiazol-2-yl)pyrimidm-4-yl]oxybenzonitrile] | 10 to 1000 nM |
| Cc1nc(Oc2cc(C#N)ccc2-c2ccc([C@H](O)CN)cn2)cc(-c2nccs2)n1 [compound 603, 4-[5-[(1S)-2-amino-1-hydroxyethyl]pyridin-2-yl]-3-[2-methyl-6-(1,3-thiazol-2-yl)pyrimidin-4-yl]oxybenzonitrile] | 10 to 1000 nM |
| Cc1nc(Oc2cc(C#N)ccc2-c2ccc([C@H](O)CN)cn2)cc(-c2ccccn2)n1 [compound 604, 4-[5-[(1S)-2-amino-1-hydroxyethyl]pyridin-2-yl]-3-(2-methyl-6-pyridin-2-ylpyrimidin-4-yl)oxybenzonitrile] | < 10 nM |
| Cc1cc(Oc2cc(C#N)ccc2-c2ccc([C@H](O)CN)cn2)cc(-c2ncc(C)s2)n1 [compound 605, 4-[5-[(1S)-2-amino-1-hydroxyethyl]pyridin-2-yl]-3-[2-methyl-6-(5-methyl-1,3-thiazol-2-yl)pyridin-4-yl]oxybenzonitrile] | 10 to 1000 nM |
| Cc1nc(Oc2cc(C#N)ccc2-c2ccc([C@H](O)CN)cn2)cc(-c2ncc(C)s2)n1 [compound 606, 4-[5-[(1S)-2-amino-1-hydroxyethyl]pyridin-2-yl]-3-[2-methyl-6-(5-methyl-1,3-thiazol-2-yl)pyrimidin-4-yl]oxybenzonitrile] | 10 to 1000 nM |
| Cc1cc(Oc2cc(C#N)ccc2-c2cnc(CN)s2)cc(N2CCOCC2)n1 [compound 607, 4-[2-(aminomethyl)-1,3-thiazol-5-yl]-3-(2-methyl-6-morpholin-4-ylpyridin-4-yl)oxybenzonitrile] | > 1000 nM |
| Cn1nc(-c2ccccn2)cc1Oc1cc(C#N)ccc1-c1cnc(CN)s1 [compound 608, 4-[2-(aminomethyl)-1,3-thiazol-5-yl]-3-(2-methyl-5-pyridin-2-ylpyrazol-3-yl)oxybenzonitrile] | > 1000 nM |
| Cn1nc(C2CC2)cc1Oc1cc(C#N)ccc1-c1ccc(CC2(N)COC2)cn1 [compound 610, 4-[5-[(3-aminooxetan-3-yl)methyl]pyridin-2-yl]-3-(5-cyclopropyl-2-methylpyrazol-3-yl)oxybenzonitrile] | < 10 nM |
| Cc1cc(Oc2cc(C#N)ccc2-c2ccc(C[C@H](N)C(=O)O)cn2)cc(N2CCOCC2)n1 [compound 611, (2S)-2-amino-3-[6-[4-cyano-2-(2-methyl-6-morpholin-4-ylpyridin-4-yl)oxyphenyl]pyridin-3-yl]propanoic acid] | > 1000 nM |
| Cn1nc(C2CC2)cc1Oc1cc(C#N)ccc1-c1ccc(C[C@H](N)C(=O)O)cn1 [compound 612, (2S)-2-amino-3-[6-[4-cyano-2-(5-cyclopropyl-2-methylpyrazol-3-yl)oxyphenyl]pyridin-3-yl]propanoic acid] | > 1000 nM |
| Cc1cc(Oc2cc(C#N)ccc2-c2ccc(C3(CN)COC3)cn2)cc(N2CCOCC2)n1 [compound 613, 4-[5-[3-(aminomethyl)oxetan-3-yl]pyridin-2-yl]-3-(2-methyl-6-morpholin-4-ylpyridin-4-yl)oxybenzonitrile] | 10 to 1000 nM |
| Cc1cc(Oc2cc(C#N)ccc2-c2ccc(C[C@@H](N)C(=O)O)cn2)cc(N2CCOCC2)n1 [compound 614, (2R)-2-amino-3-[6-[4-cyano-2-(2-methyl-6-morpholin-4-ylpyridin-4-yl)oxyphenyl]pyridin-3-yl]propanoic acid] | > 1000 nM |
| Cn1nc(-c2ccccn2)cc1Oc1cc(C#N)ccc1-c1cccn2c(CN)nnc12 [compound 617, 4-[3-(aminomethyl)-[1,2,4]triazolo[4,3-a]pyridin-8-yl]-3-(2-methyl-5-pyridin-2-ylpyrazol-3-yl)oxybenzonitrile] | 10 to 1000 nM |
| Cn1nc(C2CC2)cc1Oc1cc(C#N)ccc1-c1ccc(CN)c(C(=O)O)n1 [compound 618, 3-(aminomethyl)-6-[4-cyano-2-(5-cyclopropyl-2-methylpyrazol-3-yl)oxyphenyl]pyridine-2-carboxylic acid] | 10 to 1000 nM |
